# Experiments:
# [1] = test system: RET; conditions: estimated; cited from earlier work
# [2] = parameters: method as in earlier work; conditions: cited from earlier work
# [3] = test system: MET; conditions: read-out: IC50 for MET; estimated; cited from earlier work
# [4] = biological target: T1, aldehyde oxidase (Homo sapiens, UniProt Q06278); test: Oxidation of cabozantinib by recombinant aldehyde oxidase; type: in vitro ADME; conditions: human recombinant enzyme, data not shown
# T1 construct: purchased Gentest Corp., Woburn, MA, USA; host or cells: insect cells (baculovirus)
# T1 sequence (Q06278 1-1338): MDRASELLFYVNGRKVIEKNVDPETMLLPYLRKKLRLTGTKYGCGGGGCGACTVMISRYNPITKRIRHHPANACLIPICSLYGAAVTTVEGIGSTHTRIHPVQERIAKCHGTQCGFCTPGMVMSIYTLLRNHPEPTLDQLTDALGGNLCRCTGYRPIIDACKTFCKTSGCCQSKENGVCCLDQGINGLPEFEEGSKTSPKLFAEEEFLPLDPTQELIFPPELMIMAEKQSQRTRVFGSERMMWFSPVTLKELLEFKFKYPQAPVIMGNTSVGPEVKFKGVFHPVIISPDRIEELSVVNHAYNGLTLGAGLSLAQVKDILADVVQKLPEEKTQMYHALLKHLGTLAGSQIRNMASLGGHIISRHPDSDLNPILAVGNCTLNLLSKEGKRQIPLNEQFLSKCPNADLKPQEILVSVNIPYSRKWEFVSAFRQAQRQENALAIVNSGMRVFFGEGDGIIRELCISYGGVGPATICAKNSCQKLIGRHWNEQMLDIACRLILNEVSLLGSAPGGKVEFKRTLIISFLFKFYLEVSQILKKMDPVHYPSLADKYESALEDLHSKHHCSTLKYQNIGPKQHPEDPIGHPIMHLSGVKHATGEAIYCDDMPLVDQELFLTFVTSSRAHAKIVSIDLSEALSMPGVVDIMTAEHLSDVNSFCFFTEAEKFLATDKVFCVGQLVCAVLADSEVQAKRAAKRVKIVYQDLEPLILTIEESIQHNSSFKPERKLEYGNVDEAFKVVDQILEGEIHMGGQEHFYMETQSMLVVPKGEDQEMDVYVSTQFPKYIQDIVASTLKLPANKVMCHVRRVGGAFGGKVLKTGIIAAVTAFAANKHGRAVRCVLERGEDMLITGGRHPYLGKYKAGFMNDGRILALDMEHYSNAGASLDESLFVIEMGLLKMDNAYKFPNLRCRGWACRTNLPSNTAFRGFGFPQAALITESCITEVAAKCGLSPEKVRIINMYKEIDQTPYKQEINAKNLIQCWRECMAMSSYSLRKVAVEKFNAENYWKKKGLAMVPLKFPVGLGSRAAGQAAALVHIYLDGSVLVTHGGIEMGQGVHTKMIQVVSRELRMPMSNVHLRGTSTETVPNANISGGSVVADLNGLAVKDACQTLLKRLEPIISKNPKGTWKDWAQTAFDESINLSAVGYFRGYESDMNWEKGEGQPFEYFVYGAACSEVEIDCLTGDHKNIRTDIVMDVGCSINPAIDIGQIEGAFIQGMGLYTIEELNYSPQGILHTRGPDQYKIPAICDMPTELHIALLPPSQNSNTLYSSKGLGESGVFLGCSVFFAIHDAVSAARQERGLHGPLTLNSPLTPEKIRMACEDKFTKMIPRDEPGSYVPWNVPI
# [5] = biological target: T2, FMO3 (Homo sapiens, UniProt P31513); test: Oxidation of cabozantinib by recombinant FMO3; type: in vitro ADME; conditions: human recombinant enzyme, data not shown
# T2 construct: purchased Gentest Corp., Woburn, MA, USA; host or cells: insect cells (baculovirus)
# T2 sequence (P31513 1-532): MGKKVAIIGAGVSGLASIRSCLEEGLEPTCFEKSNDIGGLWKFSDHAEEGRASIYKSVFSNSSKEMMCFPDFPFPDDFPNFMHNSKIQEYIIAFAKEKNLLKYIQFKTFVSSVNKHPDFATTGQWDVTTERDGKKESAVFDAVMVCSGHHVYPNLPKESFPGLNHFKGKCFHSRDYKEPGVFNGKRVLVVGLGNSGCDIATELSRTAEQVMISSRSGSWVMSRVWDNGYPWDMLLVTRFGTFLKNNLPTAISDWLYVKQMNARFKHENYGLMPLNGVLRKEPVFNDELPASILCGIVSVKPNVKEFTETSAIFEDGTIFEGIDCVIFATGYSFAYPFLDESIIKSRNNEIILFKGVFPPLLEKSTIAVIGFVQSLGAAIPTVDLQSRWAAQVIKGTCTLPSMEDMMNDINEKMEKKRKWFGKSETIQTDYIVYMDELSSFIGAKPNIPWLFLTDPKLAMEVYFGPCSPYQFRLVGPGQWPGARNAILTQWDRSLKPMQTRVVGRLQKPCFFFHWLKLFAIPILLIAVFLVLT
# [6] = biological target: T3, FMO5 (Homo sapiens, UniProt P49326); test: Oxidation of cabozantinib by recombinant FMO5; type: in vitro ADME; conditions: human recombinant enzyme, data not shown
# T3 construct: purchased Gentest Corp., Woburn, MA, USA; host or cells: insect cells (baculovirus)
# T3 sequence (P49326 1-533): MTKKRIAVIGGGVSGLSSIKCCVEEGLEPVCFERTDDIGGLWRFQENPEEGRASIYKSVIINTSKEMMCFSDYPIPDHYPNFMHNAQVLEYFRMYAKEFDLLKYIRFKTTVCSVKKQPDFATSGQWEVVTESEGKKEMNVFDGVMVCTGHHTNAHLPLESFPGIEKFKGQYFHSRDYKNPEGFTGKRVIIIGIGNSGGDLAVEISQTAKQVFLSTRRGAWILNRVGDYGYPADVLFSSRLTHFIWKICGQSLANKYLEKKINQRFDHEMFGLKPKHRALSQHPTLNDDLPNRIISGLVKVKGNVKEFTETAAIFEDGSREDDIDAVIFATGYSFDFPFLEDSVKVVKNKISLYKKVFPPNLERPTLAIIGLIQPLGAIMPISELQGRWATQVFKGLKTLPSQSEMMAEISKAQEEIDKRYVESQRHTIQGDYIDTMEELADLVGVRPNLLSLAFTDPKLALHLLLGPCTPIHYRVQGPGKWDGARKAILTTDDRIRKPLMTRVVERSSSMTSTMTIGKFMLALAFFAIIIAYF
# [7] = biological target: CYP3A4 (Homo sapiens, UniProt P08684); conditions: cited from earlier work
# CYP3A4, sequence (P08684 whole entry): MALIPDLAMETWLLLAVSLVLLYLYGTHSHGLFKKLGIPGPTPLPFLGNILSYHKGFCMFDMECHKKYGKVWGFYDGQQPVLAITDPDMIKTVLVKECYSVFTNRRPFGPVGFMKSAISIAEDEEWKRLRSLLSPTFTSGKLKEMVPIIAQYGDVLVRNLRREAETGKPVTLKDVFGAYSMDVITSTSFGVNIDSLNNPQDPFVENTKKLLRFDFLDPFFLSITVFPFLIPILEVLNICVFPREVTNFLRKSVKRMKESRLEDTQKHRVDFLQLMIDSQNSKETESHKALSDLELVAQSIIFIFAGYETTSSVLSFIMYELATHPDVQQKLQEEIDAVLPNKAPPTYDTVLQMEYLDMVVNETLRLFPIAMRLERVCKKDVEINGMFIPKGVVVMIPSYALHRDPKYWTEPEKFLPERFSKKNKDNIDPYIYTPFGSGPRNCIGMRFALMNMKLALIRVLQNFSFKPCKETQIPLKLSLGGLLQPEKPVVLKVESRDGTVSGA
# [8] = test system: VEGFR2; conditions: read-out: IC50 for VEGFR2; estimated; cited from earlier work
structure (smiles),measurement,setting,value
"COc1cc2nccc(Oc3ccc(NC(=O)C4(C(=O)Nc5ccc(F)cc5)CC4)cc3)c2cc1OC [cabozantinib, N′1-{4-[(6,7-dimethoxyquinolin-4-yl)oxy]phenyl}-N1-(4-fluorophenyl)cyclopropane-1,1-dicarboxamide]",IC50,[1],[…]
same,Bound by proteins in human plasma,[2],≥ 99.7%
same,IC50,[3],2 nM
same,Oxidation of cabozantinib by aldehyde oxidase,[4],ineffective
same,Oxidation of cabozantinib by FMO 3,[5],ineffective
same,Oxidation of cabozantinib by FMO 5,[6],ineffective
same,Inhibition of CYP3A4-mediated testosterone 6β-hydroxylation,[7],did not inhibit

# Source: PMC7759869 (Biomedicines, 2020)
